In PMC8148468, “Shikimic acid protects skin cells from UV-induced senescence through activation of the NAD+-dependent deacetylase SIRT1” (Aging (Albany NY), 2021):

Tests used:
[1] = system: UVB-irradiated human dermal fibroblasts (HDFs); assay: UVB-induced senescence assay: SA-β-Gal staining; type: cell-based; settings: UVB-irradiated HDF
Experimental: In the second approach, we established a method for inducing senescence in these cells with 2 cycles of UVB irradiation 72h apart (Figure 2A). The use of UVA to induce senescence was discarded due to its considerably longer time requirement, being unsuitable to screen 30 compounds within a reasonable period. Cells were treated with these compounds throughout the duration of the assay and cellular senescence was monitored with two markers: accumulation of SA-β-galactosidase (SA-β-Gal) activity, and the decrease in expression of HAS2 (hyaluronic acid synthase 2), a previously reported marker of skin senescence.
Figure 2 (A) Schematic representation of the protocol for senescence induction using UVB irradiation. Cells were treated -/+ the compounds from day 1 to 7 after seeding, irradiated with UVB on days 2 and 5 and harvested for analysis on day 7. […] (C) Phase-contrast (left column) and bright field (right column) microscope images of SA-β-Gal staining showing non-irradiated cells, UVB-irradiated cells non-treated and treated with Gallic acid or Shikimic acid at the indicated concentrations. (D) Percentage of SA-β-Gal positive cells and (E) Relative HAS2 mRNA levels in non-irradiated cells, UVB-irradiated cells and UVB-irradiated cells treated with Gallic acid or Shikimic acid at the indicated concentrations. Student T-test, *p<0.05, **p<0.01, ***p<0.001.
The protocol for senescence induction using UVB irradiation is described in the Supplementary Methods. SA-β-Gal staining, WST-1, sulforhodamine B (SRB) and trypan blue assays were performed as previously described. For the siRNA experiments, the protocol for senescence induction using UVB irradiation was the same as in the Supplementary Methods. Specific siRNA (Horizon discovery, UK) for SIRT1, SIRT2, SIRT6, BiP or scramble siRNA were incubated for 6 hours before each irradiation step.
Senescence induction by UVB irradiation For the non-irradiation control conditions, HDF were […]
After 24h, culture medium was removed and well plates. After 24h, culture medium was removed replaced by fresh cell culture medium containing the and replaced with fresh cell culture medium containing compounds at different concentrations. After 24h, the compounds at different concentrations. […]
cell culture medium was removed, and cells were cells/plate in fresh cell culture medium containing the irradiated at 25 mJ/cm2 of UVB light (312 nm) in a Bio- compound in 6-well plates. After 3 days, cells were […]
amount of PBS. PBS was then removed and fresh cell fresh cell culture medium containing the compound in culture medium with the compound was added to each 6-well plates. After 2 days, cells were processed well. After 3 days, cells were irradiated again under the according to the qPCR, β-Gal staining, apoptosis, cell same conditions. After 2 days, cells were processed cycle or immunofluorescence protocols. according to the qPCR, β-Gal staining, apoptosis, cell cycle or immunofluorescence protocols.

UVB-irradiated HDF cells = assay: Apoptosis detection, Annexin V-FITC/PI flow cytometry; type: cell-based, human; settings: UVB-irradiated cells exposed to SA 10, 25, 50 mM
Experimental: Figure 4 (A) SRB and Trypan blue cell viability assays performed in cells treated with or without Shikimic acid (5, 10, 25 and 50 mM) for 24h. (B) Apoptosis detection using the Annexin V-FITC/PI double staining followed by flow cytometry in non-irradiated and non-treated cells, irradiated and non-treated cells and irradiated cells treated with Shikimic acid (10, 25 and 50 mM). (C) Representation and statistical analysis of the percentage of apoptotic cells in each of the conditions analyzed. (D) Cell cycle analysis using PI staining followed by flow cytometry. (E) Relative p16^INK4a mRNA levels monitored by qPCR in the indicated conditions. Student T-test, *p<0.05. (F) Immunofluorescence of γH2AX in non-irradiated and non-treated cells, irradiated and non-treated cells and irradiated cells treated with Shikimic acid (10, 25 and 50 mM). […]
Fluorescence-activated cell sorting (FACS) analyses of the cell cycle and apoptosis were carried out using, respectively, a Propidium Iodide Flow Cytometry Kit (Abcam, UK), and an Annexin V-FITC Apoptosis Staining/Detection Kit (Abcam, UK), following the manufacturer’s instructions. […]

[2] = system: H3K9ac (the target of SIRT1, SIRT2 and SIRT6); assay: Sirtuin activity assay in HDF: H3K9ac levels (Western blot); type: cell-based, human; settings: UV conditions, -/+25mM SA -/+1μM EX-527

O=C(O)C1=C[C@@H](O)[C@@H](O)[C@H](O)C1 [Shikimic acid]
SA-β-Gal accumulation/staining [1]: significant decrease in SA-β-Gal accumulation
prevention of UV-induced cellular senescence ([1]; SA-β-Gal and HAS2 markers): prevented the development of senescence
early apoptosis (annexin V, text) (UVB-irradiated HDF cells): very mild and mostly insignificant levels of early apoptosis
H3K9ac/H3 levels under UV-induced senescence [2]: induced increased deacetylation of H3K9ac and H4K16ac
